In the experiment the target is T1, Impα(70–529)(W184R/W231R) (Mus musculus, UniProt P52293, W184R/W231R).
T1 construct: His tag; made in house; host or cells: E. coli BL21(DE3), pET30
Nature of the experiment: Fluorescence polarization titration of FITC-labeled XRCC1 NLS peptides with major-site mutant Impα(70–529)(W184R/W231R). It counts as binding, murine. As to conditions: relative to wild-type Impα(70–529). (In general: In fluorescence polarisation assays a small probe gives low polarisation when free and higher when bound to something large.)

The text below walks through data of PMC4548243, “Nuclear Localization of the DNA Repair Scaffold XRCC1: Uncovering the Functional Role of a Bipartite NLS” (Scientific Reports, 2015).

Residues, ends and D or L forms follow the SMILES beside them. *: point of attachment. FITC = O=C1OC2(c3ccc(O)cc3Oc3cc(O)ccc32)c2ccc(NC(=S)*)cc21

Procedure: A His-tagged murine Importin α protein with the Importin β binding domain (IBB) deleted, which is identical to Impα(70–529) studied by Fontes et al.[30], was expressed in E. coli. […] The major binding pocket double mutant W184R/W231R was created using a Quikchange site-directed mutagenesis kit (Agilent).
Protein concentrations were determined by the Edelhoch procedure[59].
Apparent peptide dissociation constants were determined based on fluorescence polarization measurements using FITC-labeled peptides. Impα(70–529) was exchanged into FP buffer (20 mM Tris, pH 7.7, 125 mM NaCl, 1 mM EDTA, 2 mM tris(2-carboxyethyl)phosphine, 5% sucrose, 10 mM NaN3). […] 50 μL volumes of the binding reactions were pipetted into wells of a 96-well black flat bottomed plate and fluorescence polarization was read at room temperature with the POLARstar Omega microplate reader (BMG Labtech) using excitation at 485 nm and emission at 520 nm. […] The fluorescence polarization values generated by the experiments are arbitrary, so for easy comparisons among samples, the data were normalized to a 0–100 scale after curve-fitting. […]
Where Ycalc represents the fluorescence polarization value that is generated by the model. […]
The FITC tags were selected in an attempt to minimize possible non-specific interactions of the fluorescein with the Impα(70–529). […] Concentrations of unlabeled peptides were determined by UV absorbance[62].

For `CC(C)C[C@H](NC(=O)[C@H](CCCCN)NC(=O)[C@H](CCCNC(=N)N)NC(=O)[C@H](CCCCN)NC(=O)CNC(=O)CNC(=S)Nc1ccc2c(c1)C(=O)OC21c2ccc(O)cc2Oc2cc(O)ccc21)C(=O)O` [Peptide M1] ({FITC}-GGKRKL-OH; C-terminus assumed), the “binding affinity to Impα(70–529)(W184R/W231R), in words” value is recorded as “essentially unaffected”.
The value for `CC(C)C[C@H](NC(=O)[C@H](CCCCN)NC(=O)[C@@H]1CCCN1C(=O)[C@H](CCCNC(=N)N)NC(=O)[C@H](CCCCN)NC(=O)[C@@H]1CCCN1C(=O)[C@@H](NC(=O)[C@@H](N)CO)C(C)C)C(=O)N1CCC[C@H]1C(=O)NCC(=O)N[C@@H](CCCCNC(=S)Nc1ccc2c(c1)C(=O)OC21c2ccc(O)cc2Oc2cc(O)ccc21)C(=O)O` [Peptide M2] (H-SVPKRPKLPGK(FITC)-OH; N-terminus and C-terminus assumed) was “interacts only weakly”.
